In publication PMC9649612, “Molecular docking and biochemical validation of (-)-syringaresinol-4-O-β-D-apiofuranosyl-(1→2)-β-D-glucopyranoside binding to an allosteric site in monoamine transporters” (Frontiers in Pharmacology, 2022):

What was measured:
[1] = target: T1, hDAT V152F (S1 site mutant) (Homo sapiens, UniProt Q01959, V152F); assay: APP+ transport in HeLa cells expressing hDAT mutant V152F; assay type: cell-based
T1 construct: expressed in transfected cells; host or cells: HeLa
Description: (§1) The mutants used for this study were constructed in the WT background carried by the expression plasmids for hSERT, hDAT, or hNET under the control of CMV promotor in pcDNA3.1 vector, respectively. All mutants were generated using the Mut Express II Fast Mutagenesis Kit (Vazyme) and confirmed by full-length DNA sequencing.
(§2) HeLa cells were cultured in Dulbecco’s Modified Eagle’s Medium supplemented with 10% fetal bovine serum, 100 units/ml penicillin, and 100 μg/ml streptomycin at 37°C in a humidified 5% CO2 incubator. Cells were plated in a 6-well culture plate and grown overnight. Cells at ∼70% confluence were transfected with hSERT, hDAT, or hNET cDNA in pcDNA3.1 by lipofectamine 2000. […] After grown for additional 12–16 h, the cells were assayed for APP^+ or ASP^+ fluorescence image acquisition.
(§3) The cells expressing WT or mutants of hSERT, hDAT, or hNET were wet mounted on polylysine coated glass slides in 12-well plates and applied for the indicated treatments. […] The extent of APP^+ accumulated in the cells was determined by confocal imaging analysis. ASP^+ binding to SERT in the cell membrane was measured with digitonin-permeabilized cells ([Li M. et al., 2022a]). […] After removing excess ASP^+ by rapid washing three times, ASP^+ binding was determined by confocal imaging analysis.
(§4) Images were analyzed using Zen Blue software. […]

[2] = target: T2, hDAT H477Q (S2 site mutant) (Homo sapiens, UniProt Q01959, H477Q); assay: APP+ transport in HeLa cells expressing hDAT mutant H477Q; assay type: cell-based; settings: intact HeLa cells, read-out: SAG IC50
T2 construct: expressed in transfected cells; host or cells: HeLa
T2 sequence (Q01959 whole entry H477Q): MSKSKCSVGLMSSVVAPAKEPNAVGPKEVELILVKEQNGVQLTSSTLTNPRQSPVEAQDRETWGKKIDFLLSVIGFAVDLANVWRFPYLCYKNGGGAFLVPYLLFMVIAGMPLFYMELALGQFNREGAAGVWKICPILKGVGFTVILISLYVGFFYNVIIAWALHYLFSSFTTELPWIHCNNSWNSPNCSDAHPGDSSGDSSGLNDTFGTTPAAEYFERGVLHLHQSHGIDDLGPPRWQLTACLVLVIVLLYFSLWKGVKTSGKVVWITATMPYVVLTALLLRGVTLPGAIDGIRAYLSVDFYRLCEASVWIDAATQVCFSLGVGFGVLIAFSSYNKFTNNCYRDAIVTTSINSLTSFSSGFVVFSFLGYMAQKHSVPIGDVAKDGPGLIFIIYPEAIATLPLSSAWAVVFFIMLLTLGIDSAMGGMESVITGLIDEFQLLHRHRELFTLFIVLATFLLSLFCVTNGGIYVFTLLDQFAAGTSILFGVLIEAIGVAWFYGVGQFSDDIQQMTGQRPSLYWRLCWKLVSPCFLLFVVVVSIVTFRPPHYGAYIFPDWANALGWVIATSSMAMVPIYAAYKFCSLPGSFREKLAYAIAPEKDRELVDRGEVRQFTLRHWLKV
Description: as §1, §2, §3, §4

[3] = target: T3, hSERT S559A (S2 site mutant) (Homo sapiens, UniProt P31645, S559A); assay: ASP+ binding in digitonin-permeabilized HeLa cells expressing hSERT S559A; settings: 10 μM ASP+, read-out: SAG IC50 for binding
T3 construct: expressed in transfected cells; host or cells: HeLa (ATCC CCL-2), transient, pcDNA3.1
Description: as §1, §2, §3, §4

[4] = target: T4, hSERT P561G (S2 site mutant) (Homo sapiens, UniProt P31645, P561G); assay: APP+ transport in HeLa cells expressing hSERT mutant P561G; assay type: cell-based; settings: 2 μM APP+ 5 min, intact HeLa cells, read-out: SAG IC50 for transport
T4 construct: expressed in transfected cells; host or cells: HeLa (ATCC CCL-2), transient, pcDNA3.1
Description: as §1, §2, §3, §4

[5] = target: T5, hSERT P560G (S2 site mutant) (Homo sapiens, UniProt P31645, P560G); assay: APP+ transport in HeLa cells expressing hSERT mutant P560G; assay type: cell-based; settings: 2 μM APP+ 5 min, intact HeLa cells, read-out: SAG IC50 for transport
T5 construct: expressed in transfected cells; host or cells: HeLa (ATCC CCL-2), transient, pcDNA3.1
Description: as §1, §2, §3, §4

WT-hSERT = target: T6, WT-hSERT (Homo sapiens, UniProt P31645); assay: ASP+ binding in digitonin-permeabilized HeLa cells expressing WT-hSERT; settings: 10 μM ASP+ 5 min, 25 μg/ml digitonin-permeabilized HeLa cells, read-out: SAG IC50 for binding
T6 construct: expressed in transfected cells; host or cells: HeLa (ATCC CCL-2), transient, pcDNA3.1
Description: HeLa cells were cultured in Dulbecco’s Modified Eagle’s Medium supplemented with 10% fetal bovine serum, 100 units/ml penicillin, and 100 μg/ml streptomycin at 37°C in a humidified 5% CO2 incubator. Cells were plated in a 6-well culture plate and grown overnight. Cells at ∼70% confluence were transfected with hSERT, hDAT, or hNET cDNA in pcDNA3.1 by lipofectamine 2000. Transfected cells were incubated for 24 h at 37°C with 5% CO2 and then transferred into a 12-well plate placed with polylysine coated slides. After grown for additional 12–16 h, the cells were assayed for APP^+ or ASP^+ fluorescence image acquisition.
as §3
Images were analyzed using Zen Blue software.
Nonlinear regression fits of experimental and calculated data were performed with Origin (Origin Lab). […]

[6] = target: T7, hDAT R544G (S2 site mutant) (Homo sapiens, UniProt Q01959, R544G); assay: APP+ transport in HeLa cells expressing hDAT mutant R544G; assay type: cell-based
T7 construct: expressed in transfected cells; host or cells: HeLa
T7 sequence (Q01959 whole entry R544G): as the sequence (Q01959 whole entry H477Q) above, with Q477H, R544G counted along it
Description: as §1, §2, §3, §4

[7] = target: T8, hSERT G498T (S2 site mutant) (Homo sapiens, UniProt P31645, G498T); assay: APP+ transport in HeLa cells expressing hSERT mutant G498T; assay type: cell-based; settings: 2 μM APP+ 5 min, intact HeLa cells, read-out: SAG IC50 for transport
T8 construct: expressed in transfected cells; host or cells: HeLa (ATCC CCL-2), transient, pcDNA3.1
Description: as §1, §2, §3, §4

T1 sequence (Q01959 whole entry V152F): as the sequence (Q01959 whole entry H477Q) above, with V152F, Q477H counted along it

(-)-Syringaresinol-4-O-β-D-apiofuranosyl-(1→2)-β-D-glucopyranoside [SAG]
Effect of mutation on SAG inhibition potency ([1]; hDAT S1 residue Val152 replaced): little effect
IC50 ([1]; hDAT V152F (S1), intact HeLa cells, read-out: SAG IC50): 26.6 ± 2.8 µM
IC50 [2]: 72.4 ± 4.8 µM
IC50 [3]: 126 ± 8.1 µM
IC50 [4]: > 1000 µM
IC50 [5]: 243 ± 10 µM
IC50 (WT-hSERT): 7.88 ± 0.35 µM
Increase in SAG IC50 compared with WT ([6]; hDAT R544G vs WT-hDAT): less than 10 fold
IC50 ([6]; hDAT R544G, intact HeLa cells, read-out: SAG IC50): 150 ± 4 µM
IC50 [7]: 69.2 ± 3.3 µM
